How the values were obtained:
[1] = test system: UV4; test: Cytotoxicity in a growth inhibition assay against aerobic cultures of UV4 cells was determined; assay type: functional, cell-based; details: Cricetulus griseus
[2] = test system: CHO-AA8; test: Cytotoxicity in a growth inhibition assay against aerobic cultures of AA8 cells was determined; assay type: functional, cell-based, Cricetulus griseus

Compound	IC50 [1]	IC50 ([2]; Cricetulus griseus, CHO-AA8)	IC50 ([2]; cho-aa8)
NC(=O)c1cc(N(CCO)CCO)c(N)cc1N	3000 µM	2300 µM	
NC(=O)c1cc(N(CCCl)CCCl)c([N+](=O)[O-])cc1[N+](=O)[O-]	960 µM		1600 µM
NC(=O)c1cc2c(cc1[N+](=O)[O-])NCCN2CCCl	49 µM	730 µM	
NC(=O)c1cc2c(cc1N)NCCN2CCCl	0.87 µM	6.9 µM	

Source: ChEMBL document CHEMBL1128289, “Reductive chemistry of the novel hypoxia-selective cytotoxin 5-[N,N-bis(2-chloroethyl)amino]-2,4-dinitrobenzamide” (J Med Chem, 1995)
